Experimental data: patent publication US20240239861A1, “GLUCAGON-RECEPTOR SELECTIVE POLYPEPTIDES AND METHODS OF USE THEREOF” (i2O Therapeutics, Inc., priority 2016, published 2024)
Where a SMILES comes first, the peptide text is derived from it. [ ]: non-standard residue; d: D form. Aib = CC(C)(N)C(=O)O

Columns and labels:
human GLP-1R = human GLP-1R (Homo sapiens, UniProt P43220); assay: Peptide-receptor mediated cAMP accumulation (LANCE Ultra cAMP) in CHO-K1 cells transfected with human GLP-1R; type: cell-based; details: hGLP1 pEC50 (cAMP mean (n = 3): 11 point curve starting at 1 nM, Table 3)
Sequence of human GLP-1R (P43220 24-463): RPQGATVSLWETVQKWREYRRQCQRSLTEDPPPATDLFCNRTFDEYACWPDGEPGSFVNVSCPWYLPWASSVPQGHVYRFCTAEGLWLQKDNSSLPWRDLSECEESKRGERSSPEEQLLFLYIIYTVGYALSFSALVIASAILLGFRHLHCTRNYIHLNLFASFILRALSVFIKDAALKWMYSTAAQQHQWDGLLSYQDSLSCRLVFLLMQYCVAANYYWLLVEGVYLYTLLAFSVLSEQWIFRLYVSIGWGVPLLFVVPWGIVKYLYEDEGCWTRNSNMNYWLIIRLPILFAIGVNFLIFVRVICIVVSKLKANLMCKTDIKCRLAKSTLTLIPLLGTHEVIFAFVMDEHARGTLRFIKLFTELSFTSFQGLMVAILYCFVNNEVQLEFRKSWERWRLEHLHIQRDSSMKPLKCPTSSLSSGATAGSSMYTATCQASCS

in vivo = details: male, rat

EC50 (human GLP-1R) [nM] | clearance (in vivo) [mL/min/kg] | SMILES
> 1 | 24 | CC(C)C[C@H](NC(=O)[C@H](Cc1ccc(O)cc1)NC(=O)[C@H](CCCCN)NC(=O)[C@H](CO)NC(=O)[C@H](Cc1ccc(O)cc1)NC(=O)[C@H](CC(=O)O)NC(=O)[C@H](CO)NC(=O)[C@@H](NC(=O)[C@H](Cc1ccccc1)NC(=O)[C@@H](NC(=O)CNC(=O)[C@H](Cc1c[nH]cn1)NC(=O)[C@H](CO)NC(=O)[C@@H](N)Cc1ccc(O)cc1)[C@@H](C)O)[C@@H](C)O)C(=O)N[C@@H](CC(=O)O)C(=O)NC(C)(C)C(=O)N[C@@H](CCCCN)C(=O)N[C@@H](CCCNC(=N)N)C(=O)N[C@@H](C)C(=O)N[C@@H](CCC(N)=O)C(=O)N[C@@H](CCC(=O)O)C(=O)N[C@@H](Cc1ccccc1)C(=O)N[C@H](C(=O)NC(C)(C)C(=O)N[C@@H](Cc1c[nH]c2ccccc12)C(=O)N[C@@H](CC(C)C)C(=O)N[C@@H](CCC(=O)O)C(=O)N[C@@H](CC(=O)O)C(=O)N[C@@H](CCC(=O)O)C(=O)N1CCC[C@H]1C(=O)N[C@@H](CO)C(=O)N[C@@H](CO)C(=O)N[C@@H](CCCCN)C(=O)N[C@@H](CCC(=O)O)C(=O)N1CCC[C@H]1C(=O)N1CCC[C@H]1C(=O)N1CCC[C@H]1C(=O)N[C@@H](CO)C(=O)O)C(C)C [Compound A54] (H-YSHGTFTSDYSKYLD[Aib]KRAQEFV[Aib]WLEDEPSSKEPPPS-OH; N-terminus assumed)
> 1 | 39.9 | CC(C)C[C@H](NC(=O)[C@H](Cc1ccc(O)cc1)NC(=O)[C@H](CCCCN)NC(=O)[C@H](CO)NC(=O)[C@H](Cc1ccc(O)cc1)NC(=O)[C@H](CC(=O)O)NC(=O)[C@H](CO)NC(=O)[C@@H](NC(=O)[C@H](Cc1ccccc1)NC(=O)[C@@H](NC(=O)CNC(=O)[C@H](Cc1c[nH]cn1)NC(=O)[C@H](CO)NC(=O)[C@@H](N)Cc1ccc(O)cc1)[C@@H](C)O)[C@@H](C)O)C(=O)N[C@@H](CC(=O)O)C(=O)NC(C)(C)C(=O)N[C@@H](CCCCN)C(=O)N[C@@H](CCCNC(=N)N)C(=O)N[C@@H](C)C(=O)N[C@@H](CCC(N)=O)C(=O)N[C@@H](CCC(=O)O)C(=O)N[C@@H](Cc1ccccc1)C(=O)N[C@H](C(=O)NC(C)(C)C(=O)N[C@@H](Cc1c[nH]c2ccccc12)C(=O)N[C@@H](CC(C)C)C(=O)N[C@@H](CCC(=O)O)C(=O)N[C@@H](CC(=O)O)C(=O)N[C@@H](CCC(=O)O)C(=O)N1CCC[C@H]1C(=O)N[C@@H](CCCCN)C(=O)N[C@@H](CO)C(=O)N[C@@H](CCCCN)C(=O)N[C@@H](C)C(=O)N1CCC[C@H]1C(=O)N1CCC[C@H]1C(=O)N1CCC[C@H]1C(=O)N[C@@H](CO)C(=O)O)C(C)C [Compound A56] (H-YSHGTFTSDYSKYLD[Aib]KRAQEFV[Aib]WLEDEPKSKAPPPS-OH; N-terminus assumed)
> 1 | 37.7 | CC(C)C[C@H](NC(=O)[C@H](Cc1ccc(O)cc1)NC(=O)[C@H](CCCCN)NC(=O)[C@H](CO)NC(=O)[C@H](Cc1ccc(O)cc1)NC(=O)[C@H](CC(=O)O)NC(=O)[C@H](CO)NC(=O)[C@@H](NC(=O)[C@H](Cc1ccccc1)NC(=O)[C@@H](NC(=O)CNC(=O)[C@H](Cc1c[nH]cn1)NC(=O)[C@H](CO)NC(=O)[C@@H](N)Cc1ccc(O)cc1)[C@@H](C)O)[C@@H](C)O)C(=O)N[C@@H](CC(=O)O)C(=O)NC(C)(C)C(=O)N[C@@H](CCCCN)C(=O)N[C@@H](CCCNC(=N)N)C(=O)N[C@@H](C)C(=O)N[C@@H](CCC(N)=O)C(=O)N[C@@H](CCC(=O)O)C(=O)N[C@@H](Cc1ccccc1)C(=O)N[C@H](C(=O)NC(C)(C)C(=O)N[C@@H](Cc1c[nH]c2ccccc12)C(=O)N[C@@H](CC(C)C)C(=O)N[C@@H](CCC(=O)O)C(=O)N[C@@H](CC(=O)O)C(=O)N[C@@H](CCC(=O)O)C(=O)N1CCC[C@H]1C(=O)N[C@@H](CCCCN)C(=O)N[C@@H](CO)C(=O)N[C@@H](CCCCN)C(=O)N[C@@H](CO)C(=O)N1CCC[C@H]1C(=O)N1CCC[C@H]1C(=O)N1CCC[C@H]1C(=O)N[C@@H](CO)C(=O)O)C(C)C [Compound A58] (H-YSHGTFTSDYSKYLD[Aib]KRAQEFV[Aib]WLEDEPKSKSPPPS-OH; N-terminus assumed)
> 1 | 31.3 | CC(C)C[C@H](NC(=O)[C@H](Cc1ccc(O)cc1)NC(=O)[C@H](CCCCN)NC(=O)[C@H](CO)NC(=O)[C@H](Cc1ccc(O)cc1)NC(=O)[C@H](CC(=O)O)NC(=O)[C@H](CO)NC(=O)[C@@H](NC(=O)[C@H](Cc1ccccc1)NC(=O)[C@@H](NC(=O)CNC(=O)[C@H](Cc1c[nH]cn1)NC(=O)[C@H](CO)NC(=O)[C@@H](N)Cc1ccc(O)cc1)[C@@H](C)O)[C@@H](C)O)C(=O)N[C@@H](CC(=O)O)C(=O)N[C@@H](CO)C(=O)N[C@@H](C)C(=O)N[C@@H](CCCNC(=N)N)C(=O)N[C@@H](C)C(=O)N[C@@H](CCC(N)=O)C(=O)N[C@@H](CCC(=O)O)C(=O)N[C@@H](Cc1ccccc1)C(=O)N[C@H](C(=O)N[C@@H](CCCCN)C(=O)N[C@@H](Cc1c[nH]c2ccccc12)C(=O)N[C@@H](CC(C)C)C(=O)N[C@@H](CCC(=O)O)C(=O)N[C@@H](CC(=O)O)C(=O)N[C@@H](CCC(=O)O)C(=O)N1CCC[C@H]1C(=O)N[C@@H](CCCCN)C(=O)N[C@@H](CO)C(=O)N[C@@H](CCCCN)C(=O)N[C@@H](CCC(=O)O)C(=O)N1CCC[C@H]1C(=O)N1CCC[C@H]1C(=O)N1CCC[C@H]1C(=O)N[C@@H](CO)C(N)=O)C(C)C [Compound A72] (H-YSHGTFTSDYSKYLDSARAQEFVKWLEDEPKSKEPPPS-NH2)
> 1 | 14.7 | CC(C)C[C@H](NC(=O)[C@H](Cc1ccc(O)cc1)NC(=O)[C@H](CCCCN)NC(=O)[C@H](CO)NC(=O)[C@H](Cc1ccc(O)cc1)NC(=O)[C@H](CC(=O)O)NC(=O)[C@H](CO)NC(=O)[C@@H](NC(=O)[C@H](Cc1ccccc1)NC(=O)[C@@H](NC(=O)CNC(=O)[C@H](CCC(N)=O)NC(=O)[C@H](CO)NC(=O)[C@@H](N)Cc1ccc(O)cc1)[C@@H](C)O)[C@@H](C)O)C(=O)N[C@@H](CC(=O)O)C(=O)NC(C)(C)C(=O)N[C@@H](CCCCN)C(=O)N[C@@H](CCCNC(=N)N)C(=O)N[C@@H](C)C(=O)N[C@@H](CCC(N)=O)C(=O)N[C@@H](CCC(=O)O)C(=O)N[C@@H](Cc1ccccc1)C(=O)N[C@H](C(=O)NC(C)(C)C(=O)N[C@@H](Cc1c[nH]c2ccccc12)C(=O)N[C@@H](CC(C)C)C(=O)N[C@@H](CCC(=O)O)C(=O)N[C@@H](CC(=O)O)C(=O)N[C@@H](CCC(=O)O)C(=O)N1CCC[C@H]1C(=O)N[C@@H](CO)C(=O)N[C@@H](CO)C(=O)NCC(=O)N[C@@H](CCCCN)C(=O)N1CCC[C@H]1C(=O)N1CCC[C@H]1C(=O)N1CCC[C@H]1C(=O)N[C@@H](CO)C(=O)O)C(C)C [Compound A86] (H-YSQGTFTSDYSKYLD[Aib]KRAQEFV[Aib]WLEDEPSSGKPPPS-OH; N-terminus assumed)
> 1 | 13.7 | CC(C)C[C@H](NC(=O)[C@H](Cc1ccc(O)cc1)NC(=O)[C@H](CCCCN)NC(=O)[C@H](CO)NC(=O)[C@H](Cc1ccc(O)cc1)NC(=O)[C@H](CC(=O)O)NC(=O)[C@H](CO)NC(=O)[C@@H](NC(=O)[C@H](Cc1ccccc1)NC(=O)[C@@H](NC(=O)CNC(=O)[C@H](CCC(N)=O)NC(=O)[C@H](CO)NC(=O)[C@@H](N)Cc1c[nH]c2ccccc12)[C@@H](C)O)[C@@H](C)O)C(=O)N[C@@H](CC(=O)O)C(=O)NC(C)(C)C(=O)N[C@@H](CCCCN)C(=O)N[C@@H](CCCNC(=N)N)C(=O)N[C@@H](C)C(=O)N[C@@H](CCC(N)=O)C(=O)N[C@@H](CCC(=O)O)C(=O)N[C@@H](Cc1ccccc1)C(=O)N[C@H](C(=O)NC(C)(C)C(=O)N[C@@H](Cc1c[nH]c2ccccc12)C(=O)N[C@@H](CC(C)C)C(=O)N[C@@H](CCC(=O)O)C(=O)N[C@@H](CC(=O)O)C(=O)N[C@@H](CCC(=O)O)C(=O)N1CCC[C@H]1C(=O)N[C@@H](CO)C(=O)N[C@@H](CO)C(=O)NCC(=O)N[C@@H](CCCCN)C(=O)N1CCC[C@H]1C(=O)N1CCC[C@H]1C(=O)N1CCC[C@H]1C(=O)N[C@@H](CO)C(=O)O)C(C)C [Compound A91] (H-WSQGTFTSDYSKYLD[Aib]KRAQEFV[Aib]WLEDEPSSGKPPPS-OH; N-terminus assumed)

SMILES | EC50 (human GLP-1R) [nM] | clearance (in vivo) [mL/min/kg]
CC(C)C[C@H](NC(=O)[C@H](Cc1ccc(O)cc1)NC(=O)[C@H](CCCCN)NC(=O)[C@H](CO)NC(=O)[C@H](Cc1ccc(O)cc1)NC(=O)[C@H](CC(=O)O)NC(=O)[C@H](CO)NC(=O)[C@@H](NC(=O)[C@H](Cc1ccccc1)NC(=O)[C@@H](NC(=O)CNC(=O)[C@H](Cc1c[nH]cn1)NC(=O)[C@H](CO)NC(=O)[C@@H](N)Cc1ccc(O)cc1)[C@@H](C)O)[C@@H](C)O)C(=O)N[C@@H](CC(=O)O)C(=O)NC(C)(C)C(=O)N[C@@H](CCCCN)C(=O)N[C@@H](C)C(=O)N[C@@H](C)C(=O)N[C@@H](CCC(N)=O)C(=O)N[C@@H](CCC(=O)O)C(=O)N[C@@H](Cc1ccccc1)C(=O)N[C@H](C(=O)NC(C)(C)C(=O)N[C@@H](Cc1c[nH]c2ccccc12)C(=O)N[C@@H](CC(C)C)C(=O)N[C@@H](CCC(=O)O)C(=O)N[C@@H](CC(=O)O)C(=O)N[C@@H](CCC(=O)O)C(=O)N1CCC[C@H]1C(=O)N[C@@H](CO)C(=O)N[C@@H](CO)C(=O)NCC(=O)N[C@@H](C)C(=O)N1CCC[C@H]1C(=O)N1CCC[C@H]1C(=O)N1CCC[C@H]1C(=O)N[C@@H](CO)C(=O)O)C(C)C [Compound A76] (H-YSHGTFTSDYSKYLD[Aib]KAAQEFV[Aib]WLEDEPSSGAPPPS-OH; N-terminus assumed) | > 1 | 15.1
